# “And” between values parts separate entries of the source, which are not always exact repeats. Identical values can stand only once.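 Cultured in 96-well plates, cells were exposed to test compound for 48 hours across five concentrations. GI50 is the concentration that inhibits growth by half. TGI is the concentration that stops growth completely.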
# Key:
# Assay in all cases: growth of human tumour cells (NCI), 48 h
# A549 NSCLC = test system: A549 NSCLC
# BT-549 breast = test system: BT-549 breast
# HCC-2998 colon = test system: HCC-2998 colon
# MCF7 breast = test system: MCF7 breast
# MDA-MB-231 breast = test system: MDA-MB-231 breast
# OVCAR-8 ovarian = test system: OVCAR-8 ovarian
# SF-268 CNS = test system: SF-268 CNS
# SF-295 CNS = test system: SF-295 CNS
# SNB-19 CNS = test system: SNB-19 CNS
# U251 CNS = test system: U251 CNS
SMILES,GI50 (A549 NSCLC),TGI (A549 NSCLC),GI50 (BT-549 breast),TGI (BT-549 breast),GI50 (HCC-2998 colon),TGI (HCC-2998 colon),GI50 (MCF7 breast),TGI (MCF7 breast),GI50 (MDA-MB-231 breast),TGI (MDA-MB-231 breast),GI50 (OVCAR-8 ovarian),TGI (OVCAR-8 ovarian),GI50 (SF-268 CNS),TGI (SF-268 CNS),GI50 (SF-295 CNS),TGI (SF-295 CNS),GI50 (SNB-19 CNS),TGI (SNB-19 CNS),GI50 (U251 CNS),TGI (U251 CNS)
O=C(OC[C@@H]1CO1)c1cccc2c(=O)c3ccccc3[nH]c12,0.468 µM,5.68 µM,0.338 µM,2.86 µM,0.312 µM,1.25 µM,0.0469 µM,0.642 µM,0.393 µM,2.29 µM,0.166 µM,2.78 µM,0.172 µM,1.01 µM,0.432 µM,2.5 µM,0.505 µM,5.51 µM,0.279 µM,3.69 µM
C#Cc1cccc(NC(=O)C2CCCN(C(=O)CCl)C2)c1 (configuration not stated),> 82.5 µM,> 82.5 µM,38.6 µM,> 82.5 µM,> 82.5 µM,> 82.5 µM,> 82.5 µM,> 82.5 µM,> 82.5 µM,> 82.5 µM,61.8 µM,> 82.5 µM,> 82.5 µM,> 82.5 µM,> 82.5 µM,> 82.5 µM,> 82.5 µM,> 82.5 µM,> 82.5 µM,> 82.5 µM
COc1ccc(OCC(O)CN2CCN(c3ccc(Cl)cc3)CC2)cc1 (configuration not stated),> 100 µM,> 100 µM,> 100 µM,> 100 µM,> 100 µM,> 100 µM,> 100 µM,> 100 µM,66.1 µM,> 100 µM,88.5 µM,> 100 µM,80.6 µM,> 100 µM,> 100 µM,> 100 µM,77.7 µM,> 100 µM,79.3 µM,> 100 µM
COc1ccc(/C=C/C(C)=N/OCC(=O)Nc2ccc(Cl)cc2)cc1,3.06 µM,45.6 µM,2.71 µM,14.4 µM,3.75 µM,15.8 µM,2.3 µM,18.8 µM,1.76 µM,8.99 µM,3.52 µM,29.5 µM,4.2 µM,49.4 µM,2.96 µM,14.9 µM,3.16 µM,> 60.1 µM,2.94 µM,13.7 µM
CNCc1ccc(-c2[nH]c3cc(F)cc4c3c2CCNC4=O)cc1,19.4 µM,> 71.2 µM,17.4 µM,36.4 µM,16.5 µM,35.6 µM,8.9 µM,35.5 µM,11.1 µM,33 µM,17.4 µM,77.5 µM,22.8 µM,66 µM,18.8 µM,45.7 µM,17.3 µM,57 µM,16 µM,57.7 µM
COc1ccc(/C(C)=C(\c2ccc(Cl)cc2)c2ccc(OCCN3CCCCCC3)cc2)cc1F,5.27 µM,> 16.7 µM,2.79 µM,6.74 µM,3.81 µM,9.38 µM,3.59 µM,11.1 µM,3.29 µM,6.11 µM,5.09 µM,> 16.7 µM,6.42 µM,> 16.7 µM,2.69 µM,5.61 µM,5.13 µM,> 16.7 µM,2.79 µM,7.59 µM
COc1c(O)c2c3c(c1OC)-c1ccccc1CC3N(S(=O)(=O)c1ccc(C)cc1)CC2 (configuration not stated),2 µM,> 50 µM,3.46 µM,42.2 µM,4.01 µM,34.1 µM,1.65 µM,23.5 µM,2.01 µM,> 50 µM,1.92 µM,> 50 µM,4.56 µM,> 50 µM,2.07 µM,30.6 µM,3.29 µM,> 50 µM,1.69 µM,> 50 µM
O=NN(CCCl)C(=O)NC1CCCCC1,45.6 µM and 92.2 µM,184 µM and 244 µM,,81.7 µM,34.5 µM and 64.6 µM,123 µM and 101 µM,,117 µM,,57 µM,19.2 µM and 70.8 µM,42 µM and 208 µM and 215 µM,21 µM and 33.6 µM,57.9 µM and 120 µM and 235 µM,91.7 µM,118 µM,,118 µM and 194 µM,15.8 µM and 64.7 µM,51.2 µM and 103 µM and 173 µM
CCN1CCN(c2nc(NNC(=O)c3ccccc3)nc(N3CCN(C(c4ccccc4)c4ccccc4)CC3)n2)CC1,3.7 µM,20.2 µM,2.49 µM,7.6 µM,1.95 µM,4.08 µM,1.39 µM,3.46 µM,2.7 µM,7.55 µM,3.58 µM,19.5 µM,11.6 µM,32.7 µM,4.58 µM,16.3 µM,4.28 µM,17.8 µM,3.05 µM,10.5 µM
C=CCN=C(N/N=C/c1ccc([N+](=O)[O-])o1)NS(=O)(=O)c1cc(C(=O)Nc2ccccc2)c(Cl)cc1SCC(N)=O,> 100 µM,> 100 µM,10.4 µM,31.8 µM,20.7 µM,40.6 µM,25.2 µM,77.6 µM,14 µM,50.8 µM,29.6 µM,> 100 µM,29 µM,> 100 µM,> 100 µM,> 100 µM,33.8 µM,> 100 µM,22.9 µM,95.8 µM
Cc1nc2c(Br)cc(Br)cc2c(=O)n1-c1ccccc1NC1OCC(O)C(O)C1O (configuration not stated),34.8 µM and 10.1 µM,> 100 µM and 34.6 µM,,> 100 µM,,> 100 µM,28.4 µM and 3.7 µM,> 100 µM,,> 100 µM,30.6 µM and 14.5 µM,> 100 µM and 50.7 µM,45.1 µM and 5.56 µM,> 100 µM and 34 µM,43.1 µM and 14 µM,> 100 µM and 65.3 µM,,> 100 µM,38.3 µM and 16.1 µM,> 100 µM
NC(=O)c1ncn(C2OC(CO)C(O)C2O)c1N (configuration not stated),> 100 µM,> 100 µM,> 100 µM,> 100 µM,> 100 µM,> 100 µM,> 100 µM,> 100 µM,> 100 µM,> 100 µM,62.2 µM,> 100 µM,> 100 µM,> 100 µM,> 100 µM,> 100 µM,> 100 µM,> 100 µM,> 100 µM,> 100 µM
CNCc1cccc2c1OCCOCCOCCC(C)S(=O)(=O)c1ccc(cc1)-c1cnc(N)c(n1)C(=O)N2 (configuration not stated),1.09 µM,6.83 µM,1.53 µM,5.23 µM,4.53 µM,17.2 µM,1.28 µM,14.6 µM,2.34 µM,5.5 µM,1.78 µM,7.9 µM,1.18 µM,3.33 µM,2.84 µM,9.07 µM,2.5 µM,5.52 µM,1.15 µM,3.62 µM
NC(N)=N/N=C/c1c(-c2ccncc2)nc2sc(Cl)cn12,20.2 µM,40.4 µM,10.3 µM,27.8 µM,3.29 µM,9.36 µM,5.19 µM,> 94.2 µM,1.58 µM,3.6 µM,15.2 µM,36.4 µM,5.31 µM,15.3 µM,13.5 µM,33.7 µM,7.62 µM,> 20.6 µM,1.94 µM,3.93 µM
CCN(CC)CCOc1ccc2c(C)c(C(=O)OC)oc2c1C(=O)/C=C/c1ccc(OC)cc1,17.6 µM,40.6 µM,20.6 µM,39.4 µM,1.86 µM,3.72 µM,2.76 µM,> 22.7 µM,3.79 µM,11.2 µM,20.2 µM,40.1 µM,3.75 µM,> 28.1 µM,6.76 µM,23.7 µM,4.86 µM,13.8 µM,1.75 µM,4.44 µM
COc1cccc(C2C(C#N)=C(N)Oc3cc4c(cc32)OCO4)c1 (configuration not stated),0.0649 µM,42.6 µM,0.0874 µM,5 µM,0.0813 µM,2.52 µM,0.0351 µM,18.1 µM,0.695 µM,> 52.1 µM,0.0956 µM,> 36.2 µM,0.317 µM,> 37.8 µM,0.035 µM,22 µM,0.0682 µM,> 100 µM,0.0449 µM,12.1 µM
O=C(O)Cn1ccc(=O)c2cc([N+](=O)[O-])ccc21,,> 100 µM,,> 100 µM,,> 100 µM,,> 100 µM,,33.5 µM,,> 100 µM,,> 100 µM,,> 100 µM,,> 100 µM,,> 100 µM
c1cncc(C2ONC3=NCCN32)c1 (configuration not stated),40.5 µM,> 100 µM,22.9 µM,70 µM,27.1 µM,94.5 µM,17.5 µM,> 100 µM,32.3 µM,> 100 µM,27.4 µM,> 100 µM,21.7 µM,> 100 µM,33.3 µM,> 100 µM,69.7 µM,> 100 µM,16.5 µM,64.5 µM
O=C(Oc1ccc2c(c1)CN(Cc1ccccc1)CO2)c1ccccc1,,40.6 µM,,34.1 µM,,28.2 µM,,32.7 µM,,36 µM,,32.9 µM,,33 µM,,38.4 µM,,34.1 µM,,31.2 µM
COc1cc(/C=C2\C(=O)N(C)c3ccccc32)cc(OC)c1OC,26.3 µM,> 100 µM,33.4 µM,> 100 µM,19 µM,44.4 µM,20.3 µM,> 100 µM,14.2 µM,68.4 µM,22.7 µM,95.2 µM,0.793 µM,> 100 µM,22.1 µM,> 100 µM,24.7 µM,> 100 µM,7.49 µM,41.7 µM
O=C(c1ccccc1)C(Br)C(Br)c1ccccc1 (configuration not stated),18.3 µM,39.2 µM,12.8 µM,25.6 µM,13.3 µM,26.3 µM,1.79 µM,7.85 µM,14 µM,29 µM,4.12 µM,13.3 µM,9.37 µM,24.8 µM,11.9 µM,27.7 µM,12.7 µM,25.7 µM,8.15 µM,20.9 µM
COc1cc(N(CCC#N)CCC#N)ccc1/C(N=Nc1ccc(C(=O)O)cc1)=N/NC(=O)c1cc(Br)ccc1O,79.4 µg/mL,> 150 µg/mL,> 150 µg/mL,> 150 µg/mL,38.3 µg/mL,81.7 µg/mL,57.3 µg/mL,> 150 µg/mL,72.7 µg/mL,> 150 µg/mL,50.6 µg/mL,> 150 µg/mL,29.9 µg/mL,119 µg/mL,96.4 µg/mL,> 150 µg/mL,> 150 µg/mL,> 150 µg/mL,> 150 µg/mL,> 150 µg/mL
Fc1ccc(-c2nn3c(COc4ccc(Cl)cc4)nnc3s2)cc1Oc1ccccc1,21.9 µM,> 100 µM,24.8 µM,55.3 µM,30.6 µM,92.8 µM,21.9 µM,> 48.3 µM,16.4 µM,35.8 µM,21.2 µM,66.3 µM,20 µM,54.1 µM,15.2 µM,33.5 µM,30.2 µM,> 58.5 µM,25.1 µM,> 53.5 µM
N#CC(NC(=O)CCl)=C(Cl)Cl,3.51 µM,13.8 µM,1.93 µM,4.1 µM,1.89 µM,3.41 µM,1.22 µM,9.07 µM,1.73 µM,3.24 µM,2.21 µM,6.08 µM,1.97 µM,4.66 µM,2.74 µM,8.01 µM,1.67 µM,3.17 µM,1.75 µM,3.79 µM
CCCCCCCCCCCCOC1C(C(CC(=O)N2CCN(Cc3ccc4c(c3)OCO4)CC2)NS(=O)(=O)c2cc(Cl)cc(Cl)c2)OC2OC(C)(C)OC21 (configuration not stated),8.48 µM,> 100 µM,27.9 µM,> 100 µM,5.54 µM,> 51.4 µM,4.45 µM,36.6 µM,18.1 µM,> 89.8 µM,20.6 µM,> 100 µM,12.3 µM,> 91.5 µM,26.3 µM,> 100 µM,44.7 µM,> 100 µM,12.5 µM,> 100 µM
